This passage reports TGI and GI50 results from PubChem BioAssay (NCI).

The structures appear in SMILES notation.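 Assay format: 96-well plates, 48-hour exposure. GI50: concentration for 50% inhibition of growth. Definition used: TGI = concentration required for complete inhibition of growth.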

Test systems include HCT-15 colon; MDA-MB-435; BT-549 breast; NCI-H226 lung.
Holding throughout (experiment): DTP human tumour cell line panel, 48 h

Take `Nc1nc(-c2ccccc2N=NN2CCCC2)nc2ccccc12`: the TGI in the assay on HCT-15 colon came out at 11.1 µM; with MDA-MB-435, 6.7 µM; in the assay with BT-549 breast, 24.1 µM; in the assay on NCI-H226 lung, 12.2 µM.
Turning to `CC1OC2=N[C@@H]1C(=O)N[C@@H](C(C)C)C1=N[C@H](C(=O)N[C@@H](C(C)C)C3=N[C@H](C(=O)N[C@@H](C(C)C)C4=N[C@H](C(=O)N[C@H]2C(C)C)C(C)O4)C(C)O3)C(C)O1` (some centres undefined), the TGI with HCT-15 colon, in the assay with MDA-MB-435 and with NCI-H226 lung was above 10 µM throughout.
Take `COc1ccc(/C=c2\[nH]c3nc(=O)c(N4CCOCC4)c(N)n3c2=O)cc1`: the total growth inhibition concentration (TGI) in the assay on HCT-15 colon, with MDA-MB-435 and in the assay on NCI-H226 lung was above 100 µM each time.
In the case of `C=C(CCC(C)C1CCC2C3=C(C(=O)CC21C)C1(C)CCC(=O)[C@@H](C)C1CC3=O)C(C)C(=O)O` (some centres undefined), the TGI in the assay with HCT-15 colon, in the assay on MDA-MB-435, with BT-549 breast and with NCI-H226 lung was above 100 µM in each case.
Turning to `CC(=O)OCC1OC(n2c3c(c(-c4cccc5ccccc45)c(C#N)c2=S)CCCC3)C(OC(C)=O)C(OC(C)=O)C1OC(C)=O` (centres undefined), the TGI in the assay on HCT-15 colon, in the assay on MDA-MB-435 and in the assay with NCI-H226 lung was above 100 µM throughout.
For `Cc1cc(C)c(P2C(=C(O[Si](C(C)C)(C(C)C)C(C)C)C(C)(C)C)C2(c2ccccc2)c2ccccc2)c(C)c1` (centres undefined), the concentration for total growth inhibition (TGI) in the assay on HCT-15 colon, with MDA-MB-435, in the assay with BT-549 breast and in the assay on NCI-H226 lung was above 100 µM throughout.
For the compound `CC[N+](C)(CC)CCC(O)(c1ccccc1)c1ccccc1`, the TGI in the assay with HCT-15 colon, with MDA-MB-435, in the assay on BT-549 breast and with NCI-H226 lung was above 100 µM in each case.
As to `COc1cc2nc(-c3ccc4ccccc4c3)[nH]c(=O)c2cc1OC`, the TGI in the assay on HCT-15 colon, in the assay on BT-549 breast and in the assay with NCI-H226 lung was above 100 µM in each case.
For `Clc1ccc(N2N=C(c3cccc(Nc4ccncc4)c3)CC2c2ccc3c(c2)OCO3)cc1` (centres undefined), the GI50 in the assay with HCT-15 colon is 1.76 µM; in the assay on MDA-MB-435, 1.53 µM; in the assay with BT-549 breast it was 4.92 µM; in the assay with NCI-H226 lung, 7.28 µM. In addition, the TGI turned out to be 3.41 µM in the assay on HCT-15 colon, 3.02 µM with MDA-MB-435, 28.6 µM in the assay on BT-549 breast and 33.1 µM in the assay on NCI-H226 lung.
In the case of `O=C1CCC2(CCO1)OCCO2`, the TGI with HCT-15 colon, in the assay with MDA-MB-435, in the assay on BT-549 breast and in the assay on NCI-H226 lung was above 100 µM each time.
For `CC(C)=CCC[C@@H](C)C1=C(Nc2ccccc2Cl)C(O)=C(C)C(=O)C1=O`, the TGI was found to be 36 µM in the assay on HCT-15 colon, 36.1 µM in the assay on MDA-MB-435, 36.3 µM in the assay with BT-549 breast and 25.3 µM in the assay with NCI-H226 lung.
As to `C/C(=N\NC(=S)N1CCCCC1)c1cccc(C)n1`, the TGI in the assay on HCT-15 colon amounted to 21.6 µM; with MDA-MB-435, 16.8 µM; in the assay with BT-549 breast, 5.5 µM; with NCI-H226 lung it was 0.4 µM.
On to `O=CC(O)C(O)C(O)C(O)C(=O)NCCCCCCCCCCCCNC(=O)C(O)C(O)C(O)C(O)C=O` (centres undefined), for which the TGI in the assay on HCT-15 colon, in the assay on MDA-MB-435, in the assay on BT-549 breast and with NCI-H226 lung was above 100 µM in each case.
In the case of `CC1(C)OCC(C(O)C2OC(C)(C)OC2C=O)O1` (centres undefined), the TGI in the assay with HCT-15 colon, in the assay with MDA-MB-435 and in the assay on NCI-H226 lung was above 100 µM each time.
Consider `CC(=O)O[C@@H]1C[C@@]23C[C@@]24CC[C@H](OC2OCC(O)C(O)C2O)C(C)(C)[C@@H]4CC=C3[C@]2(C)C[C@@H]3OC4(C[C@@H](C)[C@@H]3[C@@]12C)OC(O)[C@@]1(C)O[C@@H]41` (some centres undefined), for which the total growth inhibition concentration (TGI) is 96.7 µM in the assay with HCT-15 colon, above 100 µM with MDA-MB-435, 97.3 µM in the assay on BT-549 breast and above 100 µM in the assay on NCI-H226 lung.
As to `Cc1nc2c3c(ncn2n1)Oc1c(c(-c2ccccc2)nn1-c1ccccc1)C3c1ccc(Cl)cc1` (centres undefined), the TGI in the assay on HCT-15 colon, with MDA-MB-435 and in the assay on NCI-H226 lung was above 100 µM in each case.
`c1ccc(CCNCc2ccco2)nc1`: the TGI in the assay on HCT-15 colon, in the assay on MDA-MB-435, in the assay with BT-549 breast and in the assay on NCI-H226 lung was above 100 µM in each case.
As to `COC1OC(Cc2nnc(C)o2)C(OCc2ccccc2)C(OCc2ccccc2)C1OCc1ccccc1` (centres undefined), the TGI in the assay on HCT-15 colon is above 100 µM; with MDA-MB-435, 39.2 µM; in the assay with BT-549 breast, 83.1 µM; with NCI-H226 lung, 95.6 µM.
As to `O=[N+]([O-])c1ccc(S[C@@H]2[C@H]3c4c(-c5ccccc5)[nH]c(-c5ccccc5)c4[C@@H]2C[C@H]3Cl)cc1`, the TGI in the assay with HCT-15 colon is 6.84 µM; with MDA-MB-435, 27.8 µM; in the assay with BT-549 breast, 9.78 µM; with NCI-H226 lung it was above 100 µM.
In the same order, the values of `CCc1c(Cc2cccc3ccccc23)n2c(nc1=O)SCC2OCCO` (centres undefined) are above 100 µM, 38.4 µM, above 100 µM and above 100 µM.
`N=C1N(S(=O)(=O)c2ccccc2)[C@@H](Cc2ccccc2)[C@H](c2ccccc2)C1(c1ccccc1)c1ccccc1`: the total growth inhibition concentration (TGI) with HCT-15 colon, in the assay with MDA-MB-435 and in the assay on BT-549 breast was above 100 µM in each case.
`CCOC(=O)C1(C(=O)OCC)[C@H](c2ccccc2)C2=NO[C@@H]3CCC[C@H]1[C@H]23`: the TGI is above 100 µM with HCT-15 colon, 51.5 µM in the assay with MDA-MB-435, above 100 µM in the assay on BT-549 breast and above 100 µM in the assay on NCI-H226 lung.
With `CCCCc1cc2c(C)cc(=O)oc2c(O)c1O`, the TGI is above 100 µM in the assay on HCT-15 colon, above 100 µM in the assay on MDA-MB-435, 33.6 µM in the assay with BT-549 breast and 67.9 µM with NCI-H226 lung.
With `Cc1ccncc1.F[B-](F)(F)F.[Pt+2].c1ccc(-c2cccc(-c3ccccn3)n2)nc1`, the TGI in the assay on HCT-15 colon was 38.1 µM; in the assay on MDA-MB-435, above 81.4 µM; in the assay with BT-549 breast, above 78.6 µM; with NCI-H226 lung it was 5.36 µM. Besides, the figures for the GI50 with BT-549 breast and in the assay with NCI-H226 lung were 13.7 µM and 0.618 µM, respectively.
On to `Clc1ccc(Cc2nc3ccccc3nc2-c2cccc(Br)c2)cc1`, for which the concentration for total growth inhibition (TGI) was 3.11 µM with HCT-15 colon, 4.71 µM in the assay on MDA-MB-435, 9.93 µM in the assay on BT-549 breast and 33.1 µM in the assay with NCI-H226 lung.
As to `C/C(=C\c1ccccn1)c1ccccn1`, the concentration for total growth inhibition (TGI) with HCT-15 colon, with MDA-MB-435 and in the assay with BT-549 breast was above 100 µM throughout.
As for `Cc1cc(=O)n2nc(SCc3ccccc3)sc2n1`, the TGI in the assay with HCT-15 colon, in the assay with MDA-MB-435, in the assay on BT-549 breast and with NCI-H226 lung was above 100 µM in each case.
In the case of `O=C(CCN1CCCC1)Nc1ccc2sc3ccccc3c(=O)c2n1`, the TGI in the assay on HCT-15 colon turned out to be 16.8 µM; in the assay with MDA-MB-435 it was 17.8 µM; in the assay on BT-549 breast it was 19.2 µM; in the assay on NCI-H226 lung, 29.2 µM.
Take `COc1cccc(CC(C)NCC(O)c2ccc(O)c(O)c2)c1` (centres undefined): the TGI is above 100 µM with HCT-15 colon, above 100 µM in the assay with MDA-MB-435, above 100 µM with BT-549 breast and 90.2 µM in the assay with NCI-H226 lung.
With `O=C(NCc1cccc(C(F)(F)F)c1)c1cc2sccc2nc1C(F)(F)F`, the TGI in the assay on MDA-MB-435, with BT-549 breast and with NCI-H226 lung was above 100 µM throughout.
As to `CCOC(=O)c1c(CN2CCNCC2)nc2ccccc2c1-c1ccccc1`, the TGI amounted to 32.8 µM in the assay on HCT-15 colon, 28.5 µM with MDA-MB-435, 31.9 µM in the assay with BT-549 breast and 37.9 µM with NCI-H226 lung.
In the same order, the values of `O=[N+]([O-])c1c(Br)cc(Br)c2c1Nc1c(ccc(Cl)c1Cl)S2` are 39.7 µM, 31.5 µM, 8.87 µM and 31.6 µM.
Regarding `Cn1nc2n(c1=O)CCCN2`, the concentration for total growth inhibition (TGI) with HCT-15 colon, in the assay on MDA-MB-435 and in the assay on NCI-H226 lung was above 100 µM throughout.
Consider `CCOP(=O)(OCC)C(Nc1cccc(F)c1)c1ccccc1` (centres undefined), for which the TGI with HCT-15 colon, with MDA-MB-435, with BT-549 breast and in the assay on NCI-H226 lung was above 100 µM throughout.
Turning to `Nc1ncnc2c1ncn2C1CCC(COS(N)(=O)=O)C1` (centres undefined), the TGI with HCT-15 colon, with MDA-MB-435 and with NCI-H226 lung was above 100 µM in each case.
As for `N/N=C1/C2CN3CCN(C2)CC1(c1ccc([N+](=O)[O-])cc1)C3`, the TGI in the assay with MDA-MB-435, with BT-549 breast and in the assay on NCI-H226 lung was above 100 µM in each case.
On to `C/C=C\C(CC(=O)NCCc1cn(C(=O)OCc2ccccc2)c2ccccc12)CC(=O)OC` (centres undefined), for which the TGI with HCT-15 colon, in the assay with MDA-MB-435 and in the assay with BT-549 breast was above 100 µM in each case.
In the case of `CCOC(=O)C(=[N+]=[N-])C(=O)Nc1nn2nnnc2c2ccccc12`, the TGI with MDA-MB-435, in the assay on BT-549 breast and in the assay with NCI-H226 lung was above 100 µM in each case.

Broadly, the TGI is the concentration at which net growth stops. Read a low TGI as greater sensitivity of the cells. As a reminder, the GI50 is the concentration at which growth is held to half of that of the control.
